Results as given in patent US20230203041A1, “ANTAGONISTS OF THE ADENOSINE A2A RECEPTOR” (AdoRx Therapeutics Limited, priority 2020, published 2023).

What was measured:
[1] = biological target: T1, human Adenosine A2a receptor (Homo sapiens, UniProt P29274); assay: Adenosine receptor TR-FRET binding assay (CA200645 displacement), A2a; settings: 100 nM CA200645, CHO cell membranes, 2 hours at room temperature
T1 construct: expressed in transfected cells; host or cells: CHO cell membranes

[2] = biological target: T2, human Adenosine A2b receptor (Homo sapiens, UniProt P29275); assay: Adenosine receptor TR-FRET binding assay (CA200645 displacement), A2b; settings: 30 nM CA200645, CHO cell membranes, 2 hours at room temperature
T2 construct: expressed in transfected cells; host or cells: CHO cell membranes
T2 sequence (P29275 1-332): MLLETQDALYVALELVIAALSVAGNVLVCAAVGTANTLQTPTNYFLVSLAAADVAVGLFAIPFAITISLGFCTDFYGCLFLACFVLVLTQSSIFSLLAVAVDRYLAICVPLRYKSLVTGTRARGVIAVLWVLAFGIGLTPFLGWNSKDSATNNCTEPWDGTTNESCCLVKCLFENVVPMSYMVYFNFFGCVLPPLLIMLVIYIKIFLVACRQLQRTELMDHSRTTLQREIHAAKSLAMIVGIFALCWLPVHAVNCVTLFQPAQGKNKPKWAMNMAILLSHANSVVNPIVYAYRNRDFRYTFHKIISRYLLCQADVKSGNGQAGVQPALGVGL
Method: (§1) All FRET binding experiments were conducted at room temperature in white 384-well plates, in assay binding buffer containing 1×LabMed (Cisbio, France), 100 μg/mL saponin, 1% DMSO and 0.02% pluronic acid. Binding of the fluorescently labelled Adenosine receptor antagonist XAC (CA200645, FRET acceptor) to terbium-labelled A1, A2a, A2b and A3 adenosine receptors (FRET donors) was detected by time-resolved FRET due to the close proximity of the donor and acceptor in a binding event. To investigate the ability of unlabelled test compounds to bind to Adenosine A1, A2a, A2b and A3 receptors, dose response curves were constructed that determined the ability of a range of concentrations to inhibit the binding of 30 nM CA200645 to the A2b receptor and 100 nM CA200645 to the A1, A2a, and A3 receptor.
(§2) Serial dilution (1:3 dilutions) of test compounds in neat DMSO and transfer of a 400 nL sample of test compound into the assay plate was carried out using the Mosquito (TTP Labtech, UK). The compound samples were incubated for 2 hours at room temperature with a fixed concentration of CA200645 defined for each receptor (see above) and CHO cell membranes containing the human Adenosine A1 (0.5 μg/well), A2a (0.3 μg/well), A2b (1 μg/well) or A3 (1 μg/well) receptor in 40 μL of assay buffer. Total and non-specific binding of CA200645 was determined in the absence and presence of 10 μM XAC, respectively. Following 2 hours incubation, the level of CA200645 binding was detected on a Pherastar FSX (BMG Labtech, Germany) using standard TR-FRET settings. The terbium donor was excited with three laser flashes at a wavelength of 337 nm, and donor and acceptor emission was detected at 620 nm and 665 nm wavelengths, respectively. FRET ratios were obtained by multiplying the acceptor/donor ratio value by 10,000. Specific binding was determined by subtracting the non-specific binding FRET ratio from the total binding FRET ratio. Compound IC50 curves were analysed using GraphPad Prism 7.0 (GraphPad, USA) and Ki affinity values were determined from the obtained IC50 values using the method of Cheng and Prusoff.

[3] = biological target: T3, human Adenosine A3 receptor (Homo sapiens, UniProt P0DMS8); assay: Adenosine receptor TR-FRET binding assay (CA200645 displacement), A3
T3 sequence (P0DMS8 1-318): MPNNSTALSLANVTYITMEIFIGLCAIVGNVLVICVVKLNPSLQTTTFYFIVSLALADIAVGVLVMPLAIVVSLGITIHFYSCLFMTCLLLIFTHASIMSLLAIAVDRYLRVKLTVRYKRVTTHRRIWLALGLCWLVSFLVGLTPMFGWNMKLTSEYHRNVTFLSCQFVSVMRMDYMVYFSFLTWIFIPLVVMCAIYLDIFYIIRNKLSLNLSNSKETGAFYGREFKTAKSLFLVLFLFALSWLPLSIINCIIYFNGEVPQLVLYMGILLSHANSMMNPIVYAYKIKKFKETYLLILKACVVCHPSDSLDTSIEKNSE
Method: as §1, §2

[4] = biological target: T4, human Adenosine A1 receptor (Homo sapiens, UniProt P30542); assay: Adenosine receptor TR-FRET binding assay (CA200645 displacement), A1
T4 sequence (P30542 1-326): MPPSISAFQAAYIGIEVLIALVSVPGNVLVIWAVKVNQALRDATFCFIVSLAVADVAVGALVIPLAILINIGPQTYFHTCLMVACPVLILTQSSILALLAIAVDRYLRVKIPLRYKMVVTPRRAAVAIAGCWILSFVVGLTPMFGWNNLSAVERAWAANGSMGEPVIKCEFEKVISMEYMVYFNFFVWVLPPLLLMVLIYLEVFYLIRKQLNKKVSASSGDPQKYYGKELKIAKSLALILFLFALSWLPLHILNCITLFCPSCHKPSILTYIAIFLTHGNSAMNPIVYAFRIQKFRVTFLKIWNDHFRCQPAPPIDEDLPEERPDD

T1 sequence (P29274 whole entry): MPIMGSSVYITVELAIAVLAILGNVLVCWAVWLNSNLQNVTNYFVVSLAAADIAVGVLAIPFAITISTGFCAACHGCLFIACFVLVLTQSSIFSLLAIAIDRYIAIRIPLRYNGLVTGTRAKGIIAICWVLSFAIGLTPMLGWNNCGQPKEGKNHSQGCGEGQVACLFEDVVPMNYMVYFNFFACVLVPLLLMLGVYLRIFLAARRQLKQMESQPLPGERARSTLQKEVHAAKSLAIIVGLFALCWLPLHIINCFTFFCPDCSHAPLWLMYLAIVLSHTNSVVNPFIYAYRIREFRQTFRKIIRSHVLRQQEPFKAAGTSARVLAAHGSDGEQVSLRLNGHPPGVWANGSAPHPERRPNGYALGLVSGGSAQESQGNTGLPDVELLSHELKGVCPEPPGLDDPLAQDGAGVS

Row | Ki [1] [nM] | Ki [2] [nM] | Ki [3] [nM] | Ki [4] [nM] | SMILES
1 | 1 | 26 | > 1000 | 150 | Cc1cc(-c2c(-c3cccc(C#N)c3)nn3ccc(C(=O)NC[C@H]4CCC(=O)N4)nc23)cc(C)n1 [Example 92.9]
2 | 72 | 1200 | > 1000 |  | Cc1cccnc1CNc1ccn2nc(-c3cccc(F)c3)cc2n1 [Example 66.1, 2-(3-Fluorophenyl)-N-[(3-methyl-2-pyridyl)methyl]pyrazolo[1,5-a]pyrimidin-5-amine]
3 | 492 | 2430 |  | 102 | Fc1cccc(-c2cc3nc(NCc4nc5ccccc5[nH]4)ccn3n2)c1 [Example 66.3, N-(1H-Benzimidazol-2-ylmethyl)-2-(3-fluorophenyl)pyrazolo[1,5-a]pyrimidin-5-amine]
4 | 12.5 | 25 | > 1000 |  | Cc1cc(-c2c(-c3cccc(C#N)c3)nn3ccc(O[C@H]4CCNC4)nc23)cc(Cl)n1 [Example 24.2, 3-[3-(2-Chloro-6-methyl-4-pyridyl)-5-[(3S)-pyrrolidin-3-yl]oxy-pyrazolo[1,5-a]pyrimidin-2-yl]benzonitrile]
5 | 50.8 | 91 | > 1000 |  | Cc1cc(-c2c(-c3cccc(C#N)c3)nn3ccc(O[C@H]4CCCNC4)nc23)cc(Cl)n1 [Example 24.3, 3-[3-(2-Chloro-6-methyl-4-pyridyl)-5-[[(3S)-3-piperidyl]oxy]pyrazolo[1,5-a]pyrimidin-2-yl]benzonitrile]
6 | 284 | 2160 | 25 |  | Fc1cccc(-c2cc3nc(NCCc4ccccc4)ccn3n2)c1 [Example 66.2, 2-(3-Fluorophenyl)-N-(2-phenylethyl)pyrazolo[1,5-a]pyrimidin-5-amine]
7 | 7.2 | 12 |  | 44 | Cc1cc(-c2c(-c3cccc(C#N)c3)nn3ccc(N)nc23)cc(C#N)n1 [Example 26.3, 4-[5-Amino-2-(3-cyanophenyl)pyrazolo[1,5-a]pyrimidin-3-yl]-6-methyl-pyridine-2-carbonitrile]
8 | 10.1 | 29 | > 1000 |  | Cc1cc(-c2c(-c3cccc(C#N)c3)nn3ccc(N[C@@H](C)CO)nc23)cc(Cl)n1 [Example 23.3]

Further lines, the compound ahead of its results:

Row | SMILES | Ki [1] [nM] | Ki [2] [nM] | Ki [3] [nM] | Ki [4] [nM]
9 | Cc1cc(-c2c(-c3cccc(C#N)c3)nn3ccc(NC(=O)N4CCNCC4)nc23)cc(Cl)n1 [Example 31, N-[3-(2-Chloro-6-methyl-4-pyridyl)-2-(3-cyanophenyl)pyrazolo[1,5-a]pyrimidin-5-yl]piperazine-1-carboxamide] | 10.4 | 2 | > 1000 | 96
10 | Cc1cc(-c2c(-c3cccc(C#N)c3)nn3ccc(C(=O)NCC4(O)CCC4)nc23)cc(Cl)n1 [Example 6.3, 3-(2-Chloro-6-methyl-4-pyridyl)-2-(3-cyanophenyl)-N-[(1-hydroxycyclobutyl)methyl]pyrazolo[1,5-a]pyrimidine-5-carboxamide] | 0.3 | 3 | > 1000 | 127
11 | Cc1cc(-c2c(-c3cccc(C#N)c3)nn3ccc(NC(C)(C)C)nc23)cc(Cl)n1 [Example 3.2] | 12 | 113 | > 1000 | 
12 | Fc1ccccc1-c1cc2nc(NCc3ccccc3)ccn2n1 [Example 36, N-Benzyl-2-(2-fluorophenyl)pyrazolo[1,5-a]pyrimidin-5-amine] | 175 | 1780 | > 1000 | 
13 | N#Cc1cccc(-c2nn3ccc(N)nc3c2-c2cn[nH]c2)c1 [Example 1.1] | 147 | 239 |  | 95
14 | Fc1cccc(-c2nn3ccc(NCc4ccccc4)nc3c2Cl)c1 [Example 67, N-Benzyl-3-chloro-2-(3-fluorophenyl)pyrazolo[1,5-a]pyrimidin-5-amine] | 120 | 7470 | > 1000 | 
15 | Cc1cc(-c2c(-c3cccc(C#N)c3)nn3ccc(NCCO)nc23)cc(Cl)n1 [Example 19, 3-[3-(2-Chloro-6-methyl-4-pyridyl)-5-(2-hydroxyethylamino)pyrazolo[1,5-a]pyrimidin-2-yl]benzonitrile] | 0.3 | 4 |  | 16
16 | CC(C)(O)CNC(=O)c1ccn2nc(-c3cccc(C#N)c3)c(-c3cncs3)c2n1 [Example 12.7, 2-(3-Cyanophenyl)-N-(2-hydroxy-2-methyl-propyl)-3-thiazol-5-yl-pyrazolo[1,5-a]pyrimidine-5-carboxamide] | 27.4 | 792 |  | 725
17 | Nc1ccn2nc(-c3cccc(F)c3)c(Br)c2n1 [Example 71, 3-Bromo-2-(3-fluorophenyl)pyrazolo[1,5-a]pyrimidin-5-amine] | 197 | 3860 | > 1000 | 
18 | Cc1cc(-c2c(-c3cccc(C#N)c3)nn3ccc(C(=O)N[C@@H]4CCCNC4)nc23)cc(Cl)n1 [Example 7.7, 3-(2-Chloro-6-methyl-4-pyridyl)-2-(3-cyanophenyl)-N-[(3R)-3-piperidyl]pyrazolo[1,5-a]pyrimidine-5-carboxamide] | 14.9 | 12 | > 1000 | 
19 | Cc1cc(-c2c(-c3cccc(C#N)c3)nn3ccc(N4CCOCC4)nc23)cc(Cl)n1 [Example 2.33] | 22.5 | 212 | 2000 | 
20 | Cc1cc(-c2c(-c3cccc(C#N)c3)nn3ccc(C(=O)N[C@H]4CCCNC4)nc23)cc(Cl)n1 [Example 7.4, 3-(2-Chloro-6-methyl-4-pyridyl)-2-(3-cyanophenyl)-N-[(3S)-3-piperidyl]pyrazolo[1,5-a]pyrimidine-5-carboxamide] | 4.1 | 119 | > 1000 | 
21 | O=C(O)c1c(-c2ccco2)nn2ccc(NCc3ccccc3)nc12 [Example 76, 5-(Benzylamino)-2-(2-furyl)pyrazolo[1,5-a]pyrimidine-3-carboxylic acid] | 116 | 2430 |  | 2540
22 | Cc1cc(-c2c(-c3cccc(C#N)c3)nn3ccc(C(=O)O)nc23)cc(Cl)n1 [Example 9, 3-(2-Chloro-6-methyl-4-pyridyl)-2-(3-cyanophenyl)pyrazolo[1,5-a]pyrimidine-5-carboxylic acid] | 94 | 426 | > 1000 | 
23 | Fc1cccc(-c2nn3ccc(NCc4ccccc4)nc3c2Br)c1 [Example 69, N-Benzyl-3-bromo-2-(3-fluorophenyl)pyrazolo[1,5-a]pyrimidin-5-amine] | 141 | 10000 | > 1000 | 
24 | CCn1ncc(C)c1-c1c(-c2cccc(C#N)c2)nn2ccc(C(=O)NCC(C)(C)O)nc12 [Example 12.3, 2-(3-Cyanophenyl)-3-(2-ethyl-4-methyl-pyrazol-3-yl)-N-(2-hydroxy-2-methyl-propyl)pyrazolo[1,5-a]pyrimidine-5-carboxamide] |  | 2310 | > 1000 | 
25 | N#Cc1c(-c2ccco2)nn2ccc(N3CCN(c4ccccc4)CC3)nc12 [Example 55, 2-(2-Furyl)-5-(4-phenylpiperazin-1-yl)pyrazolo[1,5-a]pyrimidine-3-carbonitrile] | 43.1 | 2370 | > 1000 | 
26 | CCn1nccc1-c1c(-c2cccc(C#N)c2)nn2ccc(C(=O)NCC(C)(C)O)nc12 [Example 12, 2-(3-Cyanophenyl)-3-(2-ethylpyrazol-3-yl)-N-(2-hydroxy-2-methyl-propyl)pyrazolo[1,5-a]pyrimidine-5-carboxamide] | 145 | 240 | > 1000 | 
27 | Cc1cc(-c2c(-c3cccc(C#N)c3)nn3ccc(NS(N)(=O)=O)nc23)cc(Cl)n1 [Example 93, 3-(2-chloro-6-methyl-4-pyridyl)-2-(3-cyanophenyl)-5-(sulfamoylamino)pyrazolo[1,5-a]pyrimidine] | 11.1 | 1 |  | 307
28 | Cn1nccc1-c1c(-c2cccc(C#N)c2)nn2ccc(C(=O)NCC(C)(C)O)nc12 [Example 12.5, 2-(3-Cyanophenyl)-N-(2-hydroxy-2-methyl-propyl)-3-(2-methylpyrazol-3-yl)pyrazolo[1,5-a]pyrimidine-5-carboxamide] |  | 1510 |  | 2380
